pIC50: −log10 of the molar value.
Assays:
[1] = biological target: T1, Prostaglandin G/H synthase 1 (Homo sapiens, UniProt P23219); experiment: Inhibition of COX-1 (unknown origin) using arachidonic acid as substrate at 100 uM measured after 10 mins by fluorometric based multimode microplate reader relative to control
[2] = biological target: T1, Prostaglandin G/H synthase 1; experiment: Inhibition of COX-1 (unknown origin) using arachidonic acid as substrate measured after 10 mins by fluorometric based multimode microplate reader
[3] = biological target: T1, Prostaglandin G/H synthase 1; experiment: Inhibition of COX-1 (unknown origin) using arachidonic acid as substrate at 1000 uM measured after 10 mins by fluorometric based multimode microplate reader relative to control

T1 sequence (P23219 whole entry): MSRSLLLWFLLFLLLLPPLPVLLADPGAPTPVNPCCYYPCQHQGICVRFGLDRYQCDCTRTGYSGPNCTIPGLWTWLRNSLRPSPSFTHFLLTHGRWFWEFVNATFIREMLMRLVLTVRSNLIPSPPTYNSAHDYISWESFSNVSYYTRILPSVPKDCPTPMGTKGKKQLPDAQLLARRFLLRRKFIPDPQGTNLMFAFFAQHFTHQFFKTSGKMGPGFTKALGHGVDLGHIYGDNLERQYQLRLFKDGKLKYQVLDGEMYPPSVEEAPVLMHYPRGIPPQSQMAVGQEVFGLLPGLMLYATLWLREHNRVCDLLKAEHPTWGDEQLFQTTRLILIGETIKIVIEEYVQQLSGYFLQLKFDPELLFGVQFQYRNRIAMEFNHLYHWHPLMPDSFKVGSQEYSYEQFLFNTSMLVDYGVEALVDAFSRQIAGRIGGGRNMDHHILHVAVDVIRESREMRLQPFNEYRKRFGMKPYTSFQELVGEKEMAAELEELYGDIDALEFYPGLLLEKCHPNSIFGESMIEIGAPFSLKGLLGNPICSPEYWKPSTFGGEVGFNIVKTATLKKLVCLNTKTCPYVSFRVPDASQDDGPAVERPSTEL

Row | SMILES | inhibition [1] | pIC50 [2] | inhibition [3]
1 | COc1cc(/C=N/Nc2nc(-c3ccc(S(C)(=O)=O)cc3)cs2)cc(OC)c1O | 32.3% | < 3.00 | 43.3%
2 | COc1ccccc1/C=N/Nc1nc(-c2ccc(S(C)(=O)=O)cc2)cs1 | 30.8% | < 3.00 | 43.1%
3 | COc1ccc(/C=N/Nc2nc(-c3ccc(S(C)(=O)=O)cc3)cs2)c(OC)c1 | 27.7% | < 3.00 | 44.6%
4 | COc1ccc(/C=N/Nc2nc(-c3ccc(S(C)(=O)=O)cc3)cs2)cc1O | 41.2% | < 4.00 | 61.3%
5 | CS(=O)(=O)c1ccc(-c2csc(N/N=C/c3ccc(O)cc3O)n2)cc1 | 31.4% | < 3.00 | 47.1%
6 | CS(=O)(=O)c1ccc(-c2csc(N/N=C/c3cccc(O)c3)n2)cc1 | 40.9% | < 4.00 | 66.3%
7 | CS(=O)(=O)c1ccc(-c2csc(N/N=C/c3ccc(O)cc3)n2)cc1 | 32.2% | < 3.00 | 48.9%
8 | COc1ccc(/C=N/Nc2nc(-c3ccc(S(C)(=O)=O)cc3)cs2)cc1OC | 40% | < 4.00 | 55.6%
9 | CC(C)Cc1ccc(C(C)C(=O)O)cc1 (configuration not stated) | 89.4% |  | 
10 | COc1ccc(OC)c(/C=N/Nc2nc(-c3ccc(S(C)(=O)=O)cc3)cs2)c1 | 35% | < 4.00 | 60%
11 | COc1cc(/C=N/Nc2nc(-c3ccc(S(C)(=O)=O)cc3)cs2)cc(OC)c1OC | 35.8% | < 3.00 | 45.7%
12 | COc1ccc(O)c(/C=N/Nc2nc(-c3ccc(S(C)(=O)=O)cc3)cs2)c1 | 43% | < 4.00 | 53%
13 | COc1cccc(/C=N/Nc2nc(-c3ccc(S(C)(=O)=O)cc3)cs2)c1OC | 40.8% | < 4.00 | 57.4%
